Measurements taken from ChEMBL document CHEMBL5126517, “Structure-Activity Relationship in the Leucettine Family of Kinase Inhibitors” (J Med Chem, 2022).

Assays:
[1] = target: Dual specificity tyrosine-phosphorylation-regulated kinase 1B (Homo sapiens, UniProt Q9Y463)
[2] = target: T1, Dual specificity tyrosine-phosphorylation-regulated kinase 1A (Homo sapiens, UniProt Q13627); test: Inhibition of DYRK1A in human SH-SY5Y overexpressing Tau4R cells assessed as phosphorylated Tau Thr212 residue level at 10 uM incubated for 6 hrs by western blot analysis relative to control; assay type: cell-based
U2OS = test: Induction of PI3K/mTor-dependent autophagy in human U2OS cells assessed as number of LC3 foci per cell at 10 uM measured after 4 hrs; assay type: cell-based; details: filed as activator
[3] = target: Serine/threonine-protein kinase pim-1 (Homo sapiens, UniProt P11309); test: Inhibition of human recombinant Pim1 expressed in Escherichia coli using histone H1 as substrate incubated for 30 mins in presence of ATP by scintillation counting method
Serine/threonine-protein kinase pim-1, sequence (P11309 whole entry, the tested form may be a part): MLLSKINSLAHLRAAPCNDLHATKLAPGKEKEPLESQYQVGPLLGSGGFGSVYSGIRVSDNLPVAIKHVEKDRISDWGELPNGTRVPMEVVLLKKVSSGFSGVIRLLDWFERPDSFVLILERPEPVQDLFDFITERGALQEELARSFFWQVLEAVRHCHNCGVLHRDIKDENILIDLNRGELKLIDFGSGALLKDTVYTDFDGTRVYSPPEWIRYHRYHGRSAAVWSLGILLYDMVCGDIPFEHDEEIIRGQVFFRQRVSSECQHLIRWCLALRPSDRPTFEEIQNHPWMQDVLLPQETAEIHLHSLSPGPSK

[4] = target: Dual specificity protein kinase CLK2 (Mus musculus, UniProt O35491); test: Inhibition of mouse recombinant GST-fused CLK2 expressed in Escherichia coli using GRSRSRSRSRSR peptide as substrate incubated for 30 mins in presence of ATP by scintillation counting method
Dual specificity protein kinase CLK2, sequence (O35491 whole entry, the tested form may be a part): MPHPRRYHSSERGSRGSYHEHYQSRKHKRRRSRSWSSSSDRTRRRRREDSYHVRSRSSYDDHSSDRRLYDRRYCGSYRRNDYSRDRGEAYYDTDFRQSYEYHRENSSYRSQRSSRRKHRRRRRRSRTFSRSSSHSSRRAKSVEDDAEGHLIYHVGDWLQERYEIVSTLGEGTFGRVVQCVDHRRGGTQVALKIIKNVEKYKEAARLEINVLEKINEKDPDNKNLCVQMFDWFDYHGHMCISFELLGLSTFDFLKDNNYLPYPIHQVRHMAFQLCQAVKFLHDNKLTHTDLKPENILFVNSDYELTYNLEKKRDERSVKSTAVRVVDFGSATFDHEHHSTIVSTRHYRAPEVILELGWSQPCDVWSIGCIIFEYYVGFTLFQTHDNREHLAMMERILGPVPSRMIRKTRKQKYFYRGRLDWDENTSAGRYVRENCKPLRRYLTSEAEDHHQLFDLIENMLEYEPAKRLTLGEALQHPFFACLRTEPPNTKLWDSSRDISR

[5] = Neurotoxicity against mouse HT-22 cells assessed as cell survival at 20 uM treated for 24 hrs by MTS assay; assay type: toxicity, cell-based; details: ht-22, 24 h
[6] = Neurotoxicity against mouse HT-22 cells assessed as cell survival treated for 24 hrs by MTS assay; assay type: toxicity, cell-based
[7] = target: Dual specificity protein kinase CLK3 (Mus musculus, UniProt O35492); test: Inhibition of GST-fused mouse recombinant CLK3 expressed in Escherichia coli using GRSRSRSRSRSR peptide as substrate incubated for 30 mins in presence of ATP by scintillation counting method
Dual specificity protein kinase CLK3, sequence (O35492 whole entry, the tested form may be a part): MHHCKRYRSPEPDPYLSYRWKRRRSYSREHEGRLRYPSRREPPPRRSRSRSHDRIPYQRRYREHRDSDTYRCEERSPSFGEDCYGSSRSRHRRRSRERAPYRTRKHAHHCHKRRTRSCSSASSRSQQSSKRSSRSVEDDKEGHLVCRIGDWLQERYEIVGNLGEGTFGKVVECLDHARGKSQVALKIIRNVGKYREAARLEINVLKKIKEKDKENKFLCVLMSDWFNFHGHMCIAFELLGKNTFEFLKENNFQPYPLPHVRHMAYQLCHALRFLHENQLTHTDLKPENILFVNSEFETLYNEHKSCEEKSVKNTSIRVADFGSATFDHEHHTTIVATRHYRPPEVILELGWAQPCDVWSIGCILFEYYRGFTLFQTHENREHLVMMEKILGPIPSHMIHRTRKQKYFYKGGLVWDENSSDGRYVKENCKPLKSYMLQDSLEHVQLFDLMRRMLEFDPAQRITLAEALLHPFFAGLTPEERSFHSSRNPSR

[8] = target: T1, Dual specificity tyrosine-phosphorylation-regulated kinase 1A; test: Inhibition of GST-fused human recombinant DYRK1A expressed in Escherichia coli using GRSRSRSRSRSR peptide as substrate incubated for 30 mins in presence of ATP by scintillation counting method
[9] = target: T2, Dual specificity tyrosine-phosphorylation-regulated kinase 3 (Homo sapiens, UniProt O43781); test: Inhibition of GST-fused human recombinant DYRK3 expressed in Escherichia coli using GRSRSRSRSRSR peptide as substrate incubated for 30 mins in presence of ATP by scintillation counting method
T2 sequence (O43781 whole entry): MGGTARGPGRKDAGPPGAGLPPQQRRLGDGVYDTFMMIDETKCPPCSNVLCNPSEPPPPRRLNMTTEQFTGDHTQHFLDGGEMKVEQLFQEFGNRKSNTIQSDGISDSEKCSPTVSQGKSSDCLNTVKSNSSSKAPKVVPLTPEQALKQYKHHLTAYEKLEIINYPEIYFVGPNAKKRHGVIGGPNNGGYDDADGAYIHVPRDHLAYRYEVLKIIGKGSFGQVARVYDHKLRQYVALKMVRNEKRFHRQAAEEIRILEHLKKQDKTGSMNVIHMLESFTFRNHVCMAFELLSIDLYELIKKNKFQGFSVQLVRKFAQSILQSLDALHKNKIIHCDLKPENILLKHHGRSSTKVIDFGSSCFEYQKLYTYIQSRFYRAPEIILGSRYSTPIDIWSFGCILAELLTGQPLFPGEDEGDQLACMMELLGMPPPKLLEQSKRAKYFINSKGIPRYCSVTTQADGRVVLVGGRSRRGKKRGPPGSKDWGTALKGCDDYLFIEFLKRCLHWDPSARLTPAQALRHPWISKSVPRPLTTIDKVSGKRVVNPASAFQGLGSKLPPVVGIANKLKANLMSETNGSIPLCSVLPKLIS

HT-22 [10] = test: Modulation of CLK1 pre-mRNA splicing in mouse HT-22 cells assessed as inclusion of CLK1 exon 4 by measuring change in threshold cycle at 10 uM measured after 4 hrs by real time PCR analysis; assay type: cell-based; details: filed as modulator
Cannabinoid receptor 1 [11] = target: T3, Cannabinoid receptor 1 (Homo sapiens, UniProt P21554); test: Antagonist activity at CP-55940-activated CB1 receptor (unknown origin) at 10 uM by beta-arrestin assay relative to control; assay type: functional; design: scale not given: the % may be the effect or the level left
T3 sequence (P21554 whole entry, the tested form may be a part): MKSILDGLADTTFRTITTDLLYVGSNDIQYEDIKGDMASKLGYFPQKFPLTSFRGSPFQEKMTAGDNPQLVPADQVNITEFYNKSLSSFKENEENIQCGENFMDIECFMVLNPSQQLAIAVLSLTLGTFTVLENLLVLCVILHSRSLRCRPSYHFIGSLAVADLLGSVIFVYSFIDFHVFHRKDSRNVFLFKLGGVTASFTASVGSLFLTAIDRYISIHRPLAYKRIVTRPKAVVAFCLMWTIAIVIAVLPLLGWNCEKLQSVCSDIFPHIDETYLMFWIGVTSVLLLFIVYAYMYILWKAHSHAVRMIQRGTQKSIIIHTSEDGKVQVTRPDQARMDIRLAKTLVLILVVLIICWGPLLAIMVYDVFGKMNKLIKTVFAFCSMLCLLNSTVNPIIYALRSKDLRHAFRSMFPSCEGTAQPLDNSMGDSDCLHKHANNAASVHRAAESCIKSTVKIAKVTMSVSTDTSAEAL

[12] = target: Dual specificity protein kinase CLK4 (Mus musculus, UniProt O35493); test: Inhibition of GST-fused mouse recombinant CLK4 expressed in Escherichia coli using GRSRSRSRSRSR peptide as substrate incubated for 30 mins in presence of ATP by scintillation counting method
Dual specificity protein kinase CLK4, sequence (O35493 whole entry, the tested form may be a part): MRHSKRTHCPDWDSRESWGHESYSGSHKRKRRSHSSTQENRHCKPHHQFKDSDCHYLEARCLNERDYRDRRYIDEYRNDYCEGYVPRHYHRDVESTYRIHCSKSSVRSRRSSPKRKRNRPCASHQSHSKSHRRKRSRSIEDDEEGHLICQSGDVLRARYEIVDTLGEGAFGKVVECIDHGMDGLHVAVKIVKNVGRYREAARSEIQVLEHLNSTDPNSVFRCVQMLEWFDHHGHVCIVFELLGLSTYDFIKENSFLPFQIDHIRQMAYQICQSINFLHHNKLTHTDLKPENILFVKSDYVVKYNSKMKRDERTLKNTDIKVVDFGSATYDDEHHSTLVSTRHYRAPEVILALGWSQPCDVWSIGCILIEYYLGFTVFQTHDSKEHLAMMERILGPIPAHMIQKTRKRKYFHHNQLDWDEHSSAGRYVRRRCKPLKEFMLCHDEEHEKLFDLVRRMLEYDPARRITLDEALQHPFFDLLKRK

Casein kinase 2 = Casein kinase 2 (Homo sapiens, UniProt P67870+P68400+P19784+Q8NEV1); test: Inhibition of human recombinant CK2 using RRRDDDSDDD peptide as substrate incubated for 30 mins in presence of ATP by scintillation counting method; assay type: protein assay
[13] = target: T4, Dual specificity tyrosine-phosphorylation-regulated kinase 2 (Homo sapiens, UniProt Q92630); test: Inhibition of GST-fused human recombinant DYRK2 expressed in Escherichia coli using GRSRSRSRSRSR peptide as substrate incubated for 30 mins in presence of ATP by scintillation counting method
T4 sequence (Q92630 whole entry): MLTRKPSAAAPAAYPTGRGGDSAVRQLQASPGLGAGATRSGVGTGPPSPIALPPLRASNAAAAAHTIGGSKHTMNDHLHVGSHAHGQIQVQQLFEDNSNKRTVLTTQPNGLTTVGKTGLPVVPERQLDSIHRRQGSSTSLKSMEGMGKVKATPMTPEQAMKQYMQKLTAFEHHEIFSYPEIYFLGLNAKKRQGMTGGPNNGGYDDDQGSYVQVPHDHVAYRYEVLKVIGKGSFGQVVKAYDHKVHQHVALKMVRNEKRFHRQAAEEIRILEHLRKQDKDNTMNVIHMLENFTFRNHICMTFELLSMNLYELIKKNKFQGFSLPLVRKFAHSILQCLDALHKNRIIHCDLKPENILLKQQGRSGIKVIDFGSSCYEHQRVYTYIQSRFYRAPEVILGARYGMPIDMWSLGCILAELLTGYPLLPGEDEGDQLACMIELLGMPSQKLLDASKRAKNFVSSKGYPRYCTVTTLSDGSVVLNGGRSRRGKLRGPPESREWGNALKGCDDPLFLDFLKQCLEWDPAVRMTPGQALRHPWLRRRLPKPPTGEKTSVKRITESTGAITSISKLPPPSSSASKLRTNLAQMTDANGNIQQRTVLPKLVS

[14] = target: Glycogen synthase kinase-3 (Sus scrofa, UniProt B2LUN4+I6LNT8); test: Inhibition of porcine brain GSK-3alpha/beta using YRRAAVPPSPSLSRHSSPHQpSEDEEE as substrate incubated for 30 mins in presence of ATP by scintillation counting method; assay type: tissue-based
[15] = target: Dual specificity protein kinase CLK1 (Mus musculus, UniProt P22518); test: Inhibition of GST-fused mouse recombinant CLK1 expressed in Escherichia coli using GRSRSRSRSRSR peptide as substrate incubated for 30 mins in presence of ATP by scintillation counting method
Dual specificity protein kinase CLK1, sequence (P22518 whole entry, the tested form may be a part): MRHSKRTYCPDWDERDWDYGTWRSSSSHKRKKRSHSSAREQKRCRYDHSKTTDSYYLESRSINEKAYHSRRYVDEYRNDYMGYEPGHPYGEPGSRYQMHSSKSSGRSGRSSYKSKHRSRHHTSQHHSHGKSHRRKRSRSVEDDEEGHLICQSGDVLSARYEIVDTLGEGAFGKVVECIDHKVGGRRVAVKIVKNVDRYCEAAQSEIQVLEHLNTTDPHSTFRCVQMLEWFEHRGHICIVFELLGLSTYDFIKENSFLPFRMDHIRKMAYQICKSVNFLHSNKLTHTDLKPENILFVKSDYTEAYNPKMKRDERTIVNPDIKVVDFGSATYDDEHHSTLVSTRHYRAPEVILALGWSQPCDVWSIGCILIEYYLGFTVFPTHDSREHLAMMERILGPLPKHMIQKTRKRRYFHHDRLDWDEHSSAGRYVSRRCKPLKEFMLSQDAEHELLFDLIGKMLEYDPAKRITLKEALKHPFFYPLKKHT

Cannabinoid receptor 1 [16] = target: T3, Cannabinoid receptor 1; test: Antagonist activity at CP-55940-activated CB1 receptor (unknown origin) by beta-arrestin assay; assay type: functional
HT-22 [17] = test: Neuroprotective activity against glutamate-induced cell death in mouse HT-22 cells treated for 24 hrs by MTS assay; assay type: functional, cell-based; details: HT-22, 24 h

Dual specificity tyrosine-phosphorylation-regulated kinase 1B, sequence (Q9Y463 whole entry): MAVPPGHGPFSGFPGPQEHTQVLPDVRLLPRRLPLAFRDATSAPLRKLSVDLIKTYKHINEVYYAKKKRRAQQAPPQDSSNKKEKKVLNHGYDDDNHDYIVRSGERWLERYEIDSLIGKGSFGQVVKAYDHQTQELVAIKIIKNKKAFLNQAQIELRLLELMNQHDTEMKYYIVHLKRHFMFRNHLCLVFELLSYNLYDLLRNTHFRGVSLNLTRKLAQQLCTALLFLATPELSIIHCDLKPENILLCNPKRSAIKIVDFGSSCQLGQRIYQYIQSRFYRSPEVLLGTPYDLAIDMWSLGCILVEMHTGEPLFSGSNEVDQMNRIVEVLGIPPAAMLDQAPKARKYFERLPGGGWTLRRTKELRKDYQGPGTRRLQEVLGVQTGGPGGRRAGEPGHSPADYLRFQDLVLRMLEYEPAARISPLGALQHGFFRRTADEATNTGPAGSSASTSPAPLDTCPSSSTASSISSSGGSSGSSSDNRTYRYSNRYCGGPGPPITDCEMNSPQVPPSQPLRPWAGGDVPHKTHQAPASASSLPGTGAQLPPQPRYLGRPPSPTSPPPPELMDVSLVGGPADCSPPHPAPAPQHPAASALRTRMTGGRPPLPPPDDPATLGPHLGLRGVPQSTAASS

Compound | IC50 [1] | inhibition [2] | Activity (U2OS) | IC50 [3] | IC50 [4] | Activity [5] | EC50 at 24 h [6] | IC50 [7] | IC50 [8] | IC50 [9] | deltaCT (HT-22 [10]) | Activity (Cannabinoid receptor 1 [11]) | IC50 [12] | IC50 (Casein kinase 2) | IC50 [13] | IC50 [14] | IC50 [15] | IC50 (Cannabinoid receptor 1 [16]) | other results
CCCSC1=N/C(=C\c2ccc3c(c2)OCO3)C(=O)N1 | 90 nM | -2.4% | 7.3 | 950 nM | 110 nM | Non-Toxic | > 20000 nM | 3100 nM | 40 nM | 510 nM | 2.48 | -2.6% | 27 nM | 1700 nM | 37 nM | 1400 nM | 34 nM |  | 
O=C1NC(Nc2ccccc2)=N/C1=C\c1cccc(F)c1 |  |  | 5.9 | > 10000 nM |  |  |  |  | > 10000 nM |  |  |  |  |  |  |  |  | 916 nM | IC50 at 24 h [6]: > 20000 nM; Activity (Cannabinoid receptor 1 [11]; filed as antagonist): 79.5%; EC50 (HT-22 [17]): 3500 nM
CCCNC1=N/C(=C\c2ccc3c(c2)OCO3)C(=O)N1 | 310 nM |  | 5.1 | 1200 nM | 550 nM |  | > 20000 nM | 3000 nM | 120 nM | 650 nM | 5.11 | -14.8% | 61 nM | 1400 nM | 100 nM | 4100 nM | 70 nM |  | 
CCCCCCc1ccc(NC2=N/C(=C\c3ccc(O)c(OC)c3)C(=O)N2)cc1 | ≥ 10000 nM |  | 7.6 | > 10000 nM |  |  | > 20000 nM |  | ≥ 10000 nM | > 10000 nM |  |  | > 10000 nM |  | ≥ 10000 nM |  | > 10000 nM | 2000 nM | Activity (Cannabinoid receptor 1 [11]; filed as antagonist): 48.1%; EC50 (HT-22 [17]): 270 nM
CCCNC1=N/C(=C\c2ccc3c(c2)OCO3)C(=O)N1CCC | > 10000 nM | -1.5% | 5 |  | ≥ 10000 nM | Non-Toxic |  | > 10000 nM | > 10000 nM | > 10000 nM | -0.32 | -13.4% | 2300 nM |  | > 10000 nM | > 10000 nM | 3000 nM |  | 
CN1C(=O)/C(=C/c2ccc3c(c2)OCO3)N=C1N [LEUCETTAMINE B] |  |  | 4.3 | > 10000 nM | 940 nM | Non-Toxic |  | 6000 nM |  | 1300 nM | 1.14 | 9.5% |  |  | 430 nM | 5000 nM | 140 nM | > 10000 nM | 
CCNC1=N/C(=C\c2ccc3c(c2)OCO3)C(=O)N1 | 480 nM | -6% | 5.6 | 1200 nM | 380 nM | Non-Toxic |  | 2300 nM | 140 nM | 470 nM | 2.64 | -40.4% | 60 nM | 410 nM | 190 nM | 2400 nM | 65 nM |  | 
